# From patent US20130183268A1, “DRUG COMBINATIONS WITH FLUORO-SUBSTITUTED OMEGA-CARBOXYARYL DIPHENYL UREA FOR THE TREATMENT AND PREVENTION OF DISEASES AND CONDITIONS” (BAYER HEALTHCARE LLC, priority 2010, published 2013)
# Experiments:
# p38 α2 = target: T1, p38 α2 (Homo sapiens, UniProt Q16539); experiment: p38 kinase in vitro assay; type: biochemical; conditions: in words
# T1 construct: His; made in house; host or cells: E. coli
# Experimental: Purified and His-tagged p38 α2 (expressed in E. Coli) was activated in vitro by MMK-6 to a high specific activity. Using a microtiter format, all reactions were conducted in 100 μL volumes with reagents diluted to yield 0.05 μg/well of activated p38 α2 and 10 μg/well of myelin basic protein in assay buffer (25 mM HEPES 7.4, 20 mM MgCl2, 150 mM NaCl). Test compounds (5 μL of a 10% DMSO solution in water) were prepared and diluted into the assay to cover a final concentration range from 5 nM to 2.5 μM. The kinase assay was initiated by addition of 25 μL of an ATP cocktail to give a final concentration of 10 μM cold ATP and 0.2 μCi [gamma-^33P] ATP per well (200-400 dpm/pmol of ATP). The plate was incubated at 32° C. for 35 min., and the reaction quenched with 7 μL of a 1 N aq HCl solution. The samples were harvested onto a P30 Filtermat (Wallac, Inc.) using a TomTec 1295 Harvester (Wallac, Inc.), and counted in a LKB 1205 Betaplate Liquid Scintillation Counter (Wallac, Inc.). Negative controls included substrate plus ATP alone. SW1353 cellular assay: SW1353 cells (human chondro-sarcoma) are seeded (1000 cells/100 μL DMEM 10% FCS/well) into 96-well plates and incubated overnight. […] Cultures are incubated for 48 h at 37° C., then supernatant IL-6 values are determined by ELISA.
# [1] = Metabolite profile, incubation of [14C]regorafenib with liver microsomes (mouse); type: in vitro ADME, NMRI mouse; conditions: [14C]regorafenib 20 μM, liver microsomes 0.5 mg/mL, 60 min
# Experimental: N-oxide (M-2), hydroxymethyl (M-3), de-methylated (M-4) and N-oxide-demethylated (M-5) metabolites of the fluoro-substituted diaryl urea of Formula (I) are shown below. They were identified as metabolites of regorafenib in vitro upon incubation with liver enzymes of various mammalian species (man, dog, rat, mouse). Studies reveal that its metabolites show high protein binding in man and animal species (data not shown). [table]
# [2] = target: T2, Lck-activated c-raf (Lck/c-raf) (Homo sapiens, UniProt P04049); experiment: c-raf (raf-1) biochemical assay; conditions: in words
# T2 construct: GST-c-raf (from amino acid 302 to amino acid 648) and Lck (full-length); made in house; host or cells: Sf9 insect cells (baculovirus, co-infected with Lck baculovirus)
# T2 sequence (P04049 302-648): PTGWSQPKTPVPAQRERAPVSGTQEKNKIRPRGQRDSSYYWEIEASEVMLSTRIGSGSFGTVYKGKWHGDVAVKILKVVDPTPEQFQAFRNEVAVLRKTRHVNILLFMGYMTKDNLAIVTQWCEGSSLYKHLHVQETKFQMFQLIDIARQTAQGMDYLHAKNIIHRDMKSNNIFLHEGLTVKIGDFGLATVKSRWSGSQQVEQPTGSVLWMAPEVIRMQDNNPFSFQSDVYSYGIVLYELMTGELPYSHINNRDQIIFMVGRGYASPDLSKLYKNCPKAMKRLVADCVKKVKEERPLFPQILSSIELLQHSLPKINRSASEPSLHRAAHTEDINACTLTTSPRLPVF
# Experimental: The c-raf biochemical assay was performed with a c-raf enzyme that was activated (phosphorylated) by Lck kinase. Lck-activated c-raf (Lck/c-raf) was produced in Sf9 insect cells by co-infecting cells with baculoviruses expressing, under the control of the polyhedrin promoter, GST-c-raf (from amino acid 302 to amino acid 648) and Lck (full-length). Both baculoviruses were used at the multiplicity of infection of 2.5 and the cells were harvested 48 h post infection.
# MEK-1 protein was produced in Sf9 insect cells by infecting cells with the baculovirus expressing GST-MEK-1 (full-length) fusion protein at the multiplicity of infection of 5 and harvesting the cells 48 hours post infection. Similar purification procedure was used for GST-c-raf 302-648 and GST-MEK-1.
# Transfected cells were suspended at 100 mg of wet cell biomass per mL in a buffer containing 10 mM sodium phosphate, 140 mM sodium chloride pH 7.3, 0.5% Triton X-100 and the protease inhibitor cocktail. […]
# Test compounds were serially diluted in DMSO using three-fold dilutions to stock concentrations ranging typically from 50 μM to 20 nM (final concentrations in the assay range from 1 μM to 0.4 nM). […] The filters were dried in a microwave, soaked in scintillation fluid and read in a Wallac 1205 Betaplate Counter (Wallac Inc., Atlanta, Ga., U.S.A.). The results were expressed as percent inhibition.
# [3] = system: basal pERK in MDA-MB-231 cells; experiment: Bio-Plex phospho-ERK1/2 immunoassay; type: cell-based, human
# Experimental: A 96 well pERK immunoassay, using laser flow cytometry (Bio-Rad) platform has been established to measure inhibition of basal pERK in breast cancer cell line. MDA-MB-231 cells were plated at 50,000 cells per well in 96 well microtitre plates in complete growth media. For effects of test compounds on basal pERK1/2 inhibition, the next day after plating, MDA-MB-231 cells were transferred to DMEM with 0.1% BSA and incubated with test compounds diluted 1:3 to a final concentration of 3 μM to 12 nM in 0.1% DMSO. Cells were incubated with test compounds for 2 h, washed, and lysed in Bio-Plex whole cell lysis buffer A. Samples are diluted with buffer B 1:1 (v/v) and directly transferred to assay plate or frozen at −80 C. degrees until processed. 50 μL of diluted MDA-MB-231 cell lysates were incubated with about 2000 of 5 micron Bio-Plex beads conjugated with an anti-ERK1/2 antibody overnight on a shaker at room temperature. The next day, biotinylated phospho-ERK1/2 sandwich immunoassay was performed, beads are washed 3 times during each incubation and then 50 μL of PE-strepavidin was used as a developing reagent. The relative fluorescence units of pERK1/2 were detected by counting 25 beads with Bio-Plex flow cell (probe) at high sensitivity. The IC50 was calculated by taking untreated cells as maximum and no cells (beads only) as background using in an Excel spreadsheet based program.
# mouse PDGFR = mouse PDGFR (Mus musculus, UniProt P05622); experiment: Murine PDGFR FRET biochemical assay; conditions: in words
# Chain of mouse PDGFR (P05622 553-1098 limits assumed): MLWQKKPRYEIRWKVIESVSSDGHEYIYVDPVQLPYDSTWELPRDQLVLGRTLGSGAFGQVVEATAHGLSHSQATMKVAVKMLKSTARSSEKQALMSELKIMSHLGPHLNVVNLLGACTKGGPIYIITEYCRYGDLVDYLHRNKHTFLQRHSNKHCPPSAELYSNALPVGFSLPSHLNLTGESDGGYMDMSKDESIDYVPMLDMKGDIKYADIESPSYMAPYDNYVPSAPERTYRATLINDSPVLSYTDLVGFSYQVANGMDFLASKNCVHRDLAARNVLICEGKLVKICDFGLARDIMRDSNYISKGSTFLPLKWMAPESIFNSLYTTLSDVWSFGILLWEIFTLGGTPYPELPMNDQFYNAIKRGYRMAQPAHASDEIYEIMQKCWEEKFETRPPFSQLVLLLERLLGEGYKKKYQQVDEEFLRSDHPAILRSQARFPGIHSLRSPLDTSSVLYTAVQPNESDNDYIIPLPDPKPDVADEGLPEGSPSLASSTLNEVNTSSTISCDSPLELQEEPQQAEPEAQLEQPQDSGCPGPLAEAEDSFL
# Experimental: This assay was formatted in a 96-well black plate (Costar 3915). The following reagents are used: Europium-labeled anti-phosphotyrosine antibody pY20 (Perand streptavidin-APC; poly GT-biotin from, and mouse PDGFR. The reaction conditions are as follows: 1 nM mouse PDGFR is combined with 20 μM ATP, 7 nM poly GT-biotin, 1 nM pY20 antibody, 5 nM streptavidin-APC, and 1% DMSO in assay buffer (50 mM HEPES pH 7.5, 10 mM MgCl2, 0.1 mM EDTA, 0.015% BRIJ 35, 0.1 mg/mL BSA, 0.1% mercaptoethanol). Reaction is initiated upon addition of enzyme. Final reaction volume in each well is 100 μL. After 90 minutes, the reaction is stopped by addition of 10 μL/well of 5 μM staurosporine. Plates are read at both 615 and 665 nm on a Perkin Elmer VictorV Multilabel counter at about 1 hour after the reaction is stopped. Signal is calculated as a ratio: (665 nm/615 nm)*10000 for each well.
# For IC50 generation for both PDGFR and Flk-1, compounds were added prior to the enzyme initiation. A 50-fold stock plate was made with compounds serially diluted 1:3 in a 50% DMSO/50% dH2O solution. […] The data were expressed as percent inhibition: % inhibition=100−((Signal with inhibitor-background)/(Signal without inhibitor-background))*100
# T1 sequence (Q16539 whole entry): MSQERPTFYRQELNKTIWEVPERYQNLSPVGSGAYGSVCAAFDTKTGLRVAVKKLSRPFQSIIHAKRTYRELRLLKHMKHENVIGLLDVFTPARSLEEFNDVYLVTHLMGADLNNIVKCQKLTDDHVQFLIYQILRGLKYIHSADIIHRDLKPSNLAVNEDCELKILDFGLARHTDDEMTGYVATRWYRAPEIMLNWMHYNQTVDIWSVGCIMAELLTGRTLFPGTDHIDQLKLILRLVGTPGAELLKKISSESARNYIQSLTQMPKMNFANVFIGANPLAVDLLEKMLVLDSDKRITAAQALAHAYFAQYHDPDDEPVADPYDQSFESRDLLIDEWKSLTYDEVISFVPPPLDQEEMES
structure (smiles),measurement,setting,value
"CNC(=O)c1cc(Oc2ccc(NC(=O)Nc3ccc(Cl)c(C(F)(F)F)c3)c(F)c2)ccn1 [Example 1, 4{4-[3-(4-chloro-3-trifluoromethylphenyl)-ureido]-3-fluorophenoxy}-pyridine-2-carboxylic acid methylamide]",inhibition of p38 kinase,p38 α2,significant inhibition
same,"% of radioactivity, NMRI mouse",[1],57.8%
same,inhibition of raf kinase,[2],potent inhibition
same,IC50,"[3]; Homo sapiens, MDA-MB-231 cells, 2 h",22 nM
same,inhibition of basal pERK,[3]; in words,significant inhibition
same,inhibition of PDGFR kinase,mouse PDGFR,significant inhibition
